Patent US8344181B2, “N-2 adamantanyl-2-phenoxy-acetamide derivatives as 11-beta hydroxysteroid dehydrogenase inhibitors” (Janssen Pharmaceutica N.V., priority 2004, dated 2013)

Key:
11β-HSD2 = target: T1, 11β-HSD2 (Homo sapiens, UniProt P80365); assay: Cellular assay of 11β-HSD2 activity in HepG2 cells; assay type: cell-based; settings: 4 hour pre-incubation, 10^-5M to 10^-10M, read-out: HSD2 cellular HepG2 Score
T1 construct: endogenous in cells; host or cells: HepG2 (ATCC HB-8065)
T1 sequence (P80365 1-405): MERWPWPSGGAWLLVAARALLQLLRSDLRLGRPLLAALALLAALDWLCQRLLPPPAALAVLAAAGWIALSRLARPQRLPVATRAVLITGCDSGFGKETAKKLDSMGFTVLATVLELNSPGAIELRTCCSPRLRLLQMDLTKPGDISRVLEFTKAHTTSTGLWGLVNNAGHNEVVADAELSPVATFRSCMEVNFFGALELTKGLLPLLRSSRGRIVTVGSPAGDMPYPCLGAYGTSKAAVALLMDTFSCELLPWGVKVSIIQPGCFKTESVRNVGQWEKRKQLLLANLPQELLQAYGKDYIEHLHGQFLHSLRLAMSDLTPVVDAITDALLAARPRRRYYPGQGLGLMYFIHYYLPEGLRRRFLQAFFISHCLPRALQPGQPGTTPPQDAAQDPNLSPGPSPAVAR
Procedure: The effects on 11β-HSD2 activity was studied in HepG2 and LCC-PK1-cells HepG2-cells (ATCC HB-8065) were seeded in 12 well plates at a density of 100,000 cells/ml and grown at 37° C. in a humidified 5% CO2 atmosphere in MEM-Rega-3 medium supplemented with 10% heat inactivated foetal calf serum, 2 mM L-glutamine and sodium bicarbonate). Medium was refreshed twice a week.
Following a 4 hour pre-incubation with test compound, 0.5 μCi ^3H-cortisol or corticosterone, was added to the cultures. One hour later, the medium was extracted on Extrelut^3-columns with 15 ml diethyl ether and the extract was analysed by HPLC as described above.
(§1) As for the enzymatic assays, the compounds to be tested were taken from a stock solution and tested at a final concentration ranging from 10^−5M to 10^−10M. From the thus obtained dose response curves, the pIC50 value was calculated and scored as follows; Score 1=pIC50 value<5, Score 2=pIC50 value in the range of 5 to 6, Score 3=pIC50 value>6. (in this table NT stands for Not Tested).

11β-HSD1 = target: T2, 11β-HSD1 (Mus musculus, UniProt P50172); assay: Cellular assay of 11β-HSD1 activity in differentiated 3T3-L1 cells; assay type: cell-based; settings: 4 hour pre-incubation, 10^-5M to 10^-10M, read-out: HSD1 cellular 3T3-L1 Score
T2 construct: endogenous in cells; host or cells: 3T3-L1 (ATCC-CL-173), differentiated into adipocytes
Procedure: The effects on 11β-HSD1 activity was measured in differentiated 3T3-L1 cells and rat hepatocytes.
Mouse fibroblast 3T3-L1 cells (ATCC-CL-173) were seeded at a density of 16500 cells/ml in 12 well plates and grown for 7 days in DMEM medium (supplemented with 10% heat inactivated foetal calf serum, 2 mM glutamine and 25 mg gentamycin) at 37° C. in a humidified 5% CO2 atmosphere. Medium was refreshed twice a week. Fibroblasts were differentiated into adipocytes at 37° C. in a 5% CO2 humidified atmosphere in growth medium containing 2 μg/ml insulin, 55 μg/ml IBMX and 39.2 μg/ml dexamethasone.
Primary hepatocytes from male rats were seeded on normal Falcon 12 well plates at a density of 250000 cells/well and incubated for 16 hours at 37° C. in a 5% CO2 humidified atmosphere in DMEM-HAM's F12 medium containing 5% Nu-serum, 100 U/ml penicillin, 100 μg/ml streptomycin, 0.25 μg/ml amphotericin B, 50 μg/ml gentamycin sulfate, 5 μg/ml insulin and 392 ng/ml dexamethasone. Following a 4 hour pre-incubation with test compound, 0.5 μCi ^3H-cortisone or dehydrocorticosterone, was added to the 3T3-L1 cultures. One hour later, the medium was extracted on Extrelut^3-columns with 15 ml diethyl ether and the extract was analysed by HPLC as described above. The effects of JNJ-compounds on rat hepatocyte HSD1 activity was measured after an incubation period of 90 minutes with 0.5 μCi^3H-dehydrocorticosterone. Corticosterone formation was analysed by HPLC.
as §1

T2 sequence (P50172 whole entry): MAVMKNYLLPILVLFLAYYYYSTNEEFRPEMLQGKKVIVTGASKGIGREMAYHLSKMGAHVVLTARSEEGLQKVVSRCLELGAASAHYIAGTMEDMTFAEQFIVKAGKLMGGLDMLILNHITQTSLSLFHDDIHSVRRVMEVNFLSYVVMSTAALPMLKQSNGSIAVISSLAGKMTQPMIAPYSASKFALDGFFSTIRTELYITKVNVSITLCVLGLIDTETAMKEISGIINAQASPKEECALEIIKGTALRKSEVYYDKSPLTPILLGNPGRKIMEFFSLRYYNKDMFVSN

SMILES	IC50 (11β-HSD2)	IC50 (11β-HSD1)
CC(=O)N[C@@]12CC3C[C@H](C1)[C@H](NC(=O)C(C)(C)Nc1ccc(C)cc1)[C@@H](C3)C2 [Compound 37]	> 10 µM	< 1 µM
Cc1cccc(OC(C)(C)C(=O)N[C@H]2[C@@H]3CC4C[C@H]2C[C@](O)(C4)C3)c1 [Compound 10]	1 to 10 µM	< 1 µM
Cc1ccc(OC(C)(C)C(=O)N[C@H]2[C@@H]3CC4C[C@H]2C[C@](OC(=O)Nc2cccc(C)c2)(C4)C3)cc1 [Compound 47]	1 to 10 µM	< 1 µM
O=C(N[C@H]1[C@@H]2CC3C[C@H]1C[C@](O)(C3)C2)C1Cc2ccccc2O1 (some centres unmarked) [Compound 24]	1 to 10 µM	< 1 µM
Cc1ccccc1OC(C)(C)C(=O)N[C@H]1[C@@H]2CC3C[C@H]1C[C@](O)(C3)C2 [Compound 12]	< 1 µM	< 1 µM
Cc1ccc(S(=O)(=O)N[C@@]23CC4C[C@H](C2)[C@H](NC(=O)C(C)(C)Oc2ccc(Cl)cc2C)[C@@H](C4)C3)cc1 [Compound 77]	> 10 µM	< 1 µM
CN(C)CCCO[C@@]12CC3C[C@H](C1)[C@H](NC(=O)C(C)(C)Oc1cccc(Cl)c1)[C@@H](C3)C2 [Compound 44]	1 to 10 µM	< 1 µM
CC(C)(Nc1ccccc1)C(=O)N[C@H]1[C@@H]2CC3C[C@H]1C[C@](F)(C3)C2 [Compound 68]	> 10 µM	< 1 µM
CCC(=O)N[C@@]12CC3C[C@H](C1)[C@H](NC(=O)C(C)(C)Oc1ccc(Cl)cc1C)[C@@H](C3)C2 [Compound 63]	< 1 µM	< 1 µM
CC(=O)Nc1cccc(OC(C)(C)C(=O)N[C@H]2[C@@H]3CC4C[C@H]2C[C@](O)(C4)C3)c1 [Compound 19]	< 1 µM	< 1 µM
Cc1cc(Cl)ccc1OC(C)(C)C(=O)N[C@H]1[C@@H]2CC3C[C@H]1C[C@](N(C)C)(C3)C2 [Compound 46]	> 10 µM	< 1 µM
Cc1cc(Cl)ccc1OC(C)(C)C(=O)N[C@H]1[C@@H]2CC3C[C@H]1C[C@](NC(=O)CC(C)C)(C3)C2 [Compound 64]	1 to 10 µM	< 1 µM
COc1ccc(NC(C)(C)C(=O)N[C@H]2[C@@H]3CC4C[C@H]2C[C@](F)(C4)C3)cc1 [Compound 59]	> 10 µM	< 1 µM
Cc1c(C)c2c(c(C)c1O)CCC(C)(C(=O)N[C@H]1[C@@H]3CC4C[C@H]1C[C@](O)(C4)C3)O2 (some centres unmarked) [Compound 28]	< 1 µM	< 1 µM
CC(=O)N[C@@]12CC3C[C@H](C1)[C@H](NC(=O)C(C)(C)Nc1cccc(C)c1)[C@@H](C3)C2 [Compound 70]	1 to 10 µM	< 1 µM
Cc1c(C(=O)N[C@H]2[C@@H]3CC4C[C@H]2C[C@](O)(C4)C3)oc2ccccc12 [Compound 7]	> 10 µM	< 1 µM
CC(C)(Nc1ccccc1)C(=O)N[C@H]1[C@@H]2CC3C[C@H]1C[C@](O)(C3)C2 [Compound 54]	> 10 µM	< 1 µM
CC(=O)N[C@@]12CC3C[C@H](C1)[C@H](NC(=O)C(C)(C)Nc1cccc(C(F)(F)F)c1)[C@@H](C3)C2 [Compound 65]	> 10 µM	< 1 µM
Cc1cc(Cl)ccc1OC(C)(C)C(=O)N[C@H]1[C@@H]2CC3C[C@H]1C[C@](NC(=O)CN(C)C)(C3)C2 [Compound 72]	1 to 10 µM	< 1 µM
Cc1cc(C)cc(OC(C)(C)C(=O)N[C@H]2[C@@H]3CC4C[C@H]2C[C@](O)(C4)C3)c1 [Compound 16]	< 1 µM	< 1 µM
Cc1cc(Cl)ccc1OC(C)(C)C(=O)N[C@H]1[C@@H]2CC3C[C@H]1C[C@](N1CCC(C)C1=O)(C3)C2 (some centres unmarked) [Compound 91]	< 1 µM	< 1 µM
Cc1cc(Cl)ccc1OC(C)(C)C(=O)N[C@H]1[C@@H]2CC3C[C@H]1C[C@](NC(=O)CCl)(C3)C2 [Compound 31]	1 to 10 µM	< 1 µM

SMILES	IC50 (11β-HSD2)	IC50 (11β-HSD1)
Cc1ccc2c(c1)NCC(C(=O)N[C@H]1[C@@H]3CC4C[C@H]1C[C@](O)(C4)C3)O2 (some centres unmarked) [Compound 11]	1 to 10 µM	< 1 µM
CCS(=O)(=O)N[C@@]12CC3C[C@H](C1)[C@H](NC(=O)C(C)(C)Oc1cccc(C(F)(F)F)c1)[C@@H](C3)C2 [Compound 87]	1 to 10 µM	< 1 µM
Cc1ccc(NC(C)(C)C(=O)N[C@H]2[C@@H]3CC4C[C@H]2C[C@](O)(C4)C3)cc1 [Compound 27]	> 10 µM	< 1 µM
Cc1ccc(OC(C)(C)C(=O)N[C@@H]2[C@@H]3CC4C[C@H]2C[C@](OCc2ccccc2)(C4)C3)cc1 [Compound 48]	< 1 µM	< 1 µM
CC(C)(Sc1ccc(Cl)cc1)C(=O)N[C@H]1[C@@H]2CC3C[C@H]1C[C@](O)(C3)C2 [Compound 4]	1 to 10 µM	< 1 µM
Cc1ccc(OC(C)(C)C(=O)N[C@H]2[C@@H]3CC4C[C@H]2C[C@](O)(C4)C3)cc1 [Compound 13]	< 1 µM	< 1 µM
COc1cccc(NC(C)(C)C(=O)N[C@H]2[C@@H]3CC4C[C@H]2C[C@](O)(C4)C3)c1 [Compound 53]	> 10 µM	< 1 µM
CC(C)(Oc1ccccc1Br)C(=O)N[C@H]1[C@@H]2CC3C[C@H]1C[C@](O)(C3)C2 [Compound 15]	< 1 µM	< 1 µM
CC(C)(Oc1ccc(Cl)cc1)C(=O)N[C@H]1[C@@H]2CC3C[C@H]1C[C@](N)(C3)C2 [Compound 95]	> 10 µM	< 1 µM
CC(C)(Nc1cccc(C(F)(F)F)c1)C(=O)N[C@H]1[C@@H]2CC3C[C@H]1C[C@](O)(C3)C2 [Compound 60]	> 10 µM	< 1 µM
CC(C)(Oc1cccc(C(F)(F)F)c1)C(=O)N[C@H]1[C@@H]2CC3C[C@H]1C[C@](O)(C3)C2 [Compound 20]	< 1 µM	< 1 µM
COc1cccc(NC(C)(C)C(=O)N[C@H]2[C@@H]3CC4C[C@H]2C[C@](NC(C)=O)(C4)C3)c1 [Compound 66]	1 to 10 µM	< 1 µM
CC(C)(Oc1cccc(Cl)c1)C(=O)N[C@H]1[C@@H]2CC3C[C@H]1C[C@](O)(C3)C2 [Compound 43]	< 1 µM	< 1 µM
CN(C)c1cccc(OC(C)(C)C(=O)N[C@H]2[C@@H]3CC4C[C@H]2C[C@](O)(C4)C3)c1 [Compound 18]	< 1 µM	< 1 µM
Cc1cc(Cl)ccc1OC(C)(C)C(=O)N[C@H]1[C@@H]2CC3C[C@H]1C[C@](NC(=O)CN(C)CCO)(C3)C2 [Compound 42]	1 to 10 µM	< 1 µM
Cc1ccc(NC(C)(C)C(=O)N[C@H]2[C@@H]3CC4C[C@H]2C[C@](F)(C4)C3)cc1 [Compound 62]	> 10 µM	< 1 µM
Cc1ccccc1NC(C)(C)C(=O)N[C@H]1[C@@H]2CC3C[C@H]1C[C@](O)(C3)C2 [Compound 34]	1 to 10 µM	< 1 µM
Cc1ccc(OC(C)(C)C(=O)N[C@H]2[C@@H]3CC4C[C@H]2C[C@](OC(=O)CN2CCOCC2)(C4)C3)cc1 [Compound 41]	1 to 10 µM	< 1 µM
O=C(N[C@H]1[C@@H]2CC3C[C@H]1C[C@](O)(C3)C2)[C@H]1CCc2cc(F)ccc2O1 [Compound 21]	< 1 µM	< 1 µM
Cc1cc(Cl)ccc1OC(C)(C)C(=O)N[C@H]1[C@@H]2CC3C[C@H]1C[C@](NS(=O)(=O)N(C)C)(C3)C2 [Compound 30]	1 to 10 µM	< 1 µM
Cc1cc(Cl)ccc1OC(C)(C)C(=O)N[C@H]1[C@@H]2CC3C[C@H]1C[C@](NC(=O)CN1CCOCC1)(C3)C2 [Compound 73]	1 to 10 µM	< 1 µM
